Measurements reported in patent EP2678315B1, “(Pyridin-4-yl)benzylamides as allosteric modulators of alpha 7 nAChR” (Janssen Pharmaceutica, N.V., priority 2011, dated 2012).
Where two headings read alike, the source gives them in different places.

Columns and labels:
[1] = molecular target: T1, human alpha 7-wt nAChR (Homo sapiens, UniProt P36544); test: Ca2+ flux imaging (FDSS) (protocol B); format: cell-based; details: for Emax: read-out: % Efficacy; for EC50: read-out: pEC50 (converted)
T1 construct: expressed in transfected cells
T1 sequence (P36544 23-502): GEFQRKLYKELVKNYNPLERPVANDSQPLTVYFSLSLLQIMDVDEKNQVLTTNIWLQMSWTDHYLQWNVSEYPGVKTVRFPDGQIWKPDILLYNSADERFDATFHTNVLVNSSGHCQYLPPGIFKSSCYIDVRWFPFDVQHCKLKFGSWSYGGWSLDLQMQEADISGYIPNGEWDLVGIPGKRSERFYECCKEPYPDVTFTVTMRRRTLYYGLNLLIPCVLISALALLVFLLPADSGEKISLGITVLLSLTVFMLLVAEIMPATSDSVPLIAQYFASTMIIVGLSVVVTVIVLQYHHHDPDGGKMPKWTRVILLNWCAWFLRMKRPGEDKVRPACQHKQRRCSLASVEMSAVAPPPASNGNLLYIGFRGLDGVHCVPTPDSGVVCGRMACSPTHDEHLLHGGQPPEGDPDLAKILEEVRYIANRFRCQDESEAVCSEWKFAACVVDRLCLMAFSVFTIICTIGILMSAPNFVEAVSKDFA
Experimental: Example D.1 : Ca^2+ flux imaging (FDSS) (protocol B)
• a) Assay buffer Hanks buffered saline solution (HBSS, Invitrogen, Belgium), supplemented with 10 mM HEPES (Invitrogen, Belgium), CaCl2 to a final concentration of 5 mM, 0.1 % Bovine serum albumin (Sigma-Aldrich NV, Belgium). • b) Calcium-sensitive dye - Fluo-4AM Fluo-4AM (Molecular Probes, USA) was dissolved in DMSO containing 10% Pluronic acid (Molecular Probes, USA) to give a stock solution which was diluted in assay buffer supplemented with 5 mM probenicid (Sigma, Aldrich NV, Belgium) to give a final concentration of 2 µM • c) 384-well plates Black-sided, transparent bottomed 384 well plates coated with poly-D-lysine, PDL pre-coated (Coming, Incorporated, USA) • d) Calcium flux measurement A Functional drug screening system (FDSS, Hamamatsu) was used to measure intracellular free-calcium flux signals.
Monolayers of human alpha 7-wt nAChR-expressing cells were grown in black-sided, transparent bottomed 384 well plates coated with PDL for 24 hours prior to loading with a fluorescent calcium indicator, fluo-4AM for up to 120 minutes.
PAM activity was detected in real time by applying the compounds to be tested to the loaded cells along with an alpha 7 nicotinic receptor agonist during constant monitoring of cellular fluorescence in a FDSS. Compounds giving peak fluorescent responses greater than the response due to agonist alone, were consideted to be alpha 7 nAChR PAMs. The alpha 7 nicotinic receptor agonist was choline, applied at a sub-maximal concentration of 100 µM. In a further setting of the present invention the compounds were applied prior to the alpha 7 nicotinic receptor agonist, in a particular 10 minutes prior to the agonist.
A control response to choline was calculated on each plate from the difference in peak in fluorescence in wells receiving either choline or assay buffer alone. Compounds of the present invention were tested at a concentration range from 0.01 µM to 30 µM. Compounds were considered to have an interesting activity when they potentiated the choline signal at least with 200 % when tested at a concentration of 30 µM (the efficacy of 100 µM choline was defined as 100% in the absence of a PAM). An EC50 (or pEC50) was determined as a concentration relating to half the maximal effect, when a clear sigmoidal curve with top plateau was obtained.

[2] = molecular target: T1, human alpha 7-wt nAChR; test: Patch-clamp current recording (whole-cell voltage-clamp, GH4C1 cells); format: cell-based; set-up: key: Type 0 compounds minimally change the effect size of the current elicited by 1 mM choline.; Type 1 compounds enhance the effect size of the current elicited by 1 mM choline but minimally alter the kinetics of the receptor.; Type 2 compounds enhance the effect size of the current elicited by 1 mM choline while reducing the rate and/or the extent of desensitization.; Type 3 compounds enhance the effect size of the current elicited by 1 mM choline. When tested at higher concentrations up to 10 µM they completely inhibit desensitization; Type 4 compounds allow for an initial desensitization of the receptor followed by a re-opening of the receptor during agonist application; details: current elicited by 1 mM choline
Experimental: The compounds of the present invention are classified as type 1-4, based on qualitative kinetic properties, as determined by whole-cell voltage-clamp recordings. This classification is based on the effect of an alpha 7 PAM compound, as described hereinbefore, on the signal elicited by an agonist application. In particular, said agonist is choline at a concentration of 1mM. In a preferred experimental setting, said alpha 7 PAM compound and choline are simultaneously applied to the cell, as described hereinafter. Desensitization is defined as the closure of the receptor upon activation during the application of the agonist in whole-cell voltage-clamp electrophysiology measurements seen as the reduction of the […] current after initial activation by the agonist.
The definition of the PAM types 1-4 is described hereinafter: Type 0 compounds minimally change the effect size of the current elicited by 1 mM choline. Type 1 compounds enhance the effect size of the current elicited by 1 mM choline but minimally alter the kinetics of the receptor. In particular, the rate and the extent of desensitization and of deactivation of the receptor elicited by the agonist is not affected. The compound-modulated response to 1 mM choline, therefore, is close to a linear scaling of the 1 mM choline response in absence of the alpha 7 PAM compound: Type 2 compounds enhance the effect size of the current elicited by 1 mM choline while reducing the rate and/or the extent of desensitization. Deactivation of the receptor is generally unaffected. Type 3 compounds enhance the effect size of the current elicited by 1 mM choline. […] Deactivation of the receptor may be slowed down. Type 4 compounds allow for an initial desensitization of the receptor followed by a re-opening of the receptor during agonist application. At low-potency concentrations of the alpha 7 PAM compound, the agonist-induced activation, which is followed by desensitization, can still be separated from the compound-induced re-opening as an initial inward current-maximum. At higher potency concentrations of the alpha 7 PAM compound, the re-opening occurs faster than the closure due to desensitization so that the initial current-maximum disappears.
A compound was considered to have interesting PAM-like activity when the potentiation of the peak current was at least 200% compared to the control choline response (= 100%). Such compounds are classified as belonging to a particular PAM type in the Experimental Part. Compounds not meeting the condition are not classified as belonging to a particular PAM-type.
The compounds also have a potentiating effect on the response to choline when measured by whole-cell patch clamp electrophysiology in GH4C1 cells stably over-expressing the human wild-type alpha 7 receptor.
Example D.2 : Patch-clamp current recording
Patch-clamp recording from mammalian cells has provided a powerful means of assessing the function of membrane-bound proteins thought to be subunits of ligand-gated ion channels. Activation of such proteins by endogenous or exogenous ligands cause opening of a pore associated with the receptor through which ions flow down their electrochemical gradient. In the case of the human alpha 7-wt nAChR-expressing GH4C1 recombinant cell line the preferential permeability to calcium of this receptor means that calcium flows into the cell upon activation by ACh, choline and other nicotinic ligands giving rise to a calcium current. Since this receptor rapidly desensitizes in the presence of agonist it is important that an application system is used which is capable of very rapid switching of solutions (< 100 ms) to prevent partial or full desensitisation of receptor responses coincident with the time of agonist application. Consequently, a second convenient technique to assess the enhancement of nicotinic efficacy is a patch-clamp recording from human alpha 7-wt nAChR-expressing GH4C1 cells coupled with a rapid-application system. […]

Cc1cc(-c2ccc(N3C[C@@H](C)O[C@@H](C)C3)cc2CNC(=O)C(C)C)cc(C)n1 [Compound 2, N-[[5-[(2R,6S)-2,6-dimethyl-4-morpholinyl]-2-(2,6-dimethyl-4-pyridinyl)phenyl]methyl]-2-methyl-propanamide]
Emax ([1]; Ca2+ assay as described in D.1): 817%
EC50 ([1]; Ca2+ assay as described in D.1): 37.2 nM
PAM type [2]: 2

Cc1cc(-c2c(F)cc(N3CCOC(C)C3)cc2CNC(=O)CC(C)C)cc(C)n1 (stereo not shown) [Compound 116]
EC50 ([1]; Ca2+ assay as described in D.1): 20.9 nM
Emax [1]: 374%
PAM type [2]: 3

Cc1cc(-c2ccc(N3C[C@@H](C)O[C@@H](C)C3)c(CNC(=O)CC3CC3)c2)cc(C)n1 [Compound 132]
EC50 ([1]; Ca2+ assay as described in D.1): 60.3 nM
PAM type [2]: 4

Cc1cc(-c2c(Cl)cc(N3C[C@@H](C)O[C@@H](C)C3)cc2CNC(=O)c2cc(C)on2)cc(C)n1 [Compound 120]
EC50 ([1]; Ca2+ assay as described in D.1): 661 nM
PAM type [2]: 1

Cc1cc(-c2c(F)cc(N3CCOC(C)C3)cc2CNC(=O)CC2CCC2)cc(C)n1 (stereo not shown) [Compound 118]
EC50 ([1]; Ca2+ assay as described in D.1): 23.4 nM
Emax [1]: 485%
PAM type [2]: 3

Cc1cc(-c2c(F)cc(N3C[C@@H](C)O[C@@H](C)C3)cc2CNC(=O)C2CCOCC2)cc(C)n1 [Compound 86]
EC50 ([1]; Ca2+ assay as described in D.1): 148 nM
PAM type [2]: 3

Cc1cc(-c2ccc(N3C[C@@H](C)O[C@@H](C)C3)cc2CNC(=O)CC2CC2)cc(C)n1 [Compound 1, N-[[5-[(2R,6S)-2,6-dimethyl-4-morpholinyl]-2-(2,6-dimethyl-4-pyridinyl)phenyl]methyl]-cyclopropaneacetamide]
EC50 ([1]; Ca2+ assay as described in D.1): 40.7 nM
PAM type [2]: 3

Cc1cc(-c2ccc(N3C[C@@H](C)O[C@@H](C)C3)cc2CNC(=O)C2CC2)cc(C)n1 [Compound 6]
EC50 ([1]; Ca2+ assay as described in D.1): 120 nM
PAM type [2]: 2

Cc1cc(-c2ccc(N3CC4CCC(C3)O4)cc2CNC(=O)C2CC2)cc(C)n1 [Compound 131]
EC50 ([1]; Ca2+ assay as described in D.1): 631 nM
Emax [1]: 269%
PAM type [2]: 2

Cc1cc(-c2c(F)cc(N3CCO[C@@H](C(F)(F)F)C3)cc2CNC(=O)C2CC2)cc(C)n1 [Compound 102]
EC50 ([1]; Ca2+ assay as described in D.1): 33.1 nM
Emax [1]: 962%
PAM type [2]: 3

CC(C)C(=O)NCc1cc(N2CCOCC2)ccc1-c1ccncc1 [Compound 137]
Emax ([1]; Ca2+ assay as described in D.1): 528%
PAM type [2]: 0

Cc1cc(-c2c(F)cc(N3CCOC(C)C3)cc2CNC(=O)C2CC2)cc(C)n1 (stereo not shown) [Compound 115]
EC50 ([1]; Ca2+ assay as described in D.1): 525 nM
Emax [1]: 232%
PAM type [2]: 2

Cc1cc(-c2c(F)cc(N3C[C@@H](C)O[C@@H](C)C3)cc2CNC(=O)C2CC2)ccn1 [Compound 88]
EC50 ([1]; Ca2+ assay as described in D.1): 209 nM
Emax [1]: 868%
PAM type [2]: 2

Cc1cc(-c2c(Cl)cc(N3C[C@@H](C)O[C@@H](C)C3)cc2CNC(=O)C(C)C)cc(C)n1 [Compound 121]
EC50 ([1]; Ca2+ assay as described in D.1): 38 nM
Emax [1]: 435%
PAM type [2]: 2

Cc1cc(-c2c(F)cc(N3CCOC(C)C3)cc2CNC(=O)c2cc(C)on2)cc(C)n1 (stereo not shown) [Compound 112]
EC50 ([1]; Ca2+ assay as described in D.1): 1070 nM
Emax [1]: 443%
PAM type [2]: 2

Cc1cc(-c2c(Cl)cc(N3C[C@@H](C)O[C@@H](C)C3)cc2CNC(=O)CC2CC2)cc(C)n1 [Compound 119]
EC50 ([1]; Ca2+ assay as described in D.1): 28.8 nM
Emax [1]: 624%
PAM type [2]: 2

Cc1cc(-c2ccc(N3C[C@@H](C)O[C@@H](C)C3)c(CNC(=O)C(C)C)c2)cc(C)n1 [Compound 134]
EC50 ([1]; Ca2+ assay as described in D.1): 91.2 nM
PAM type [2]: 3

Cc1cc(-c2c(F)cc(N3CCO[C@H](C(F)(F)F)C3)cc2CNC(=O)C2CC2)cc(C)n1 [Compound 109]
EC50 ([1]; Ca2+ assay as described in D.1): 81.3 nM
Emax [1]: 258%
PAM type [2]: 3

Cc1cc(-c2c(F)cc(N3CCO[C@@H](C(F)(F)F)C3)cc2CNC(=O)c2cc(C)on2)cc(C)n1 [Compound 100]
EC50 ([1]; Ca2+ assay as described in D.1): 155 nM
PAM type [2]: 2

Cc1cc(-c2c(F)cc(N3CCO[C@H](C(F)(F)F)C3)cc2CNC(=O)c2conc2C)cc(C)n1 [Compound 106]
EC50 ([1]; Ca2+ assay as described in D.1): 36.3 nM
Emax [1]: 159%
PAM type [2]: 2

Cc1cc(-c2c(F)cc(N3C[C@@H](C)O[C@@H](C)C3)c(F)c2CNC(=O)c2cc(C)on2)cc(C)n1 [Compound 123]
EC50 ([1]; Ca2+ assay as described in D.1): 631 nM
PAM type [2]: 0

Cc1cc(-c2cc(F)c(N3C[C@@H](C)O[C@@H](C)C3)cc2CNC(=O)C(C)C)cc(C)n1 [Compound 128]
EC50 ([1]; Ca2+ assay as described in D.1): 295 nM
Emax [1]: 329%
PAM type [2]: 2

Cc1cc(-c2cc(F)c(N3C[C@@H](C)O[C@@H](C)C3)cc2CNC(=O)C2CC2)cc(C)n1 [Compound 126]
EC50 ([1]; Ca2+ assay as described in D.1): 575 nM
Emax [1]: 352%
PAM type [2]: 2

Cc1cc(-c2ccc(N3C[C@@H](C)O[C@@H](C)C3)cc2CNC(=O)c2conc2C)cc(C)n1 [Compound 4]
EC50 ([1]; Ca2+ assay as described in D.1): 45.7 nM
PAM type [2]: 2

Cc1cc(-c2c(F)cc(N3CCOC(C)C3)cc2CNC(=O)C(C)C)cc(C)n1 (stereo not shown) [Compound 113]
EC50 ([1]; Ca2+ assay as described in D.1): 89.1 nM
Emax [1]: 284%
PAM type [2]: 2

Cc1cc(-c2ccc(N3CCOCC3)cc2CNC(=O)C(C)C)cc(C)n1 [Compound 29]
EC50 ([1]; Ca2+ assay as described in D.1): 813 nM
Emax [1]: 256%
